Results from US4692525A, “Process for the separation of optical isomers of racemic 1-pyridyl-alkyl-4-aryl piperazines, and optical isomers obtained thereby” (Malesci S.p.A. Istituto Farmacobiologico, priority 1983, dated 1987).

Legend:
[1] = Acute toxicity, i.p., mice (DL50); format: in vivo; conditions: mouse, in vivo, ip, i.p. injection, male Swiss mice; Wilcoxon method
Protocol: (§1) Male Swiss mice of 20-25 g body weight were treated by i.p. injection with rated concentrations of the three compounds. The values of DL50 and the relative confidence limits were calculated according to the method of Wilcoxon (J. Pharmac. Exp. Ther. 96, 99; 1949).

[2] = system: post-synaptic alpha-receptors; test: Alpha-blocking activity in vitro, isolated rabbit aorta, antagonism of nor-adrenaline response; format: biochemical; conditions: for pA2 (M ±DS): isolated rabbit aorta, versus nor-adrenaline
Protocol: The aorta isolated from a rabbit and prepared according to the procedure of Furchgott and Bhadrakom (J. Pharm. Exp. Ther. 108, 129; 1953) was tested with cumulative doses of nor-adrenaline till maximum responde obtainable in the absence and in the presence of the three compounds. The pA2 values were calculated according to Ariens and Van Rossum (Arch. Int. Pharmacodyn. 110, 275; 1957)
It is evident from the Table given above that the (+) derivative is 100 times as active as the (-) derivative and almost 3 times as active as the (r) compound in blocking the post-synaptic alpha-receptors response to nor-adrenaline.

[3] = system: Spontaneously hypertensive rats; test: Hypotensive activity in vivo, spontaneously hypertensive rats, oral; set-up: species or system rat; conditions: for ED50: Rattus norvegicus, 30' after oral administration, obtained from graphs; for anti-hypertensive activity (in words): in vivo, comparison among racemate and isomers
Protocol: Spontaneously hypertensive rats were employed after they were fasted for 16 hours and tested for their systemic pressure by bloodless measurements before and after oral administration of the three compounds at the doses of 5-10-15 mg/kg.
The administration of all the compounds gives rise to a lowering of the dose-dependent hypertension, because the regression coefficients are always significative. The ED50 values in mg/kg, obtained from the graphs of the activities observed, are as follows;

Male Swiss mice = test: Acute toxicity, i.p., mice (DL50); format: in vivo
Protocol: as §1

Structure (SMILES) | LD50 [1] | pA2 (M ±DS) [2] | ED50 ([3]; 0.5 h) | ED50 ([3]; 1.5 h, 1 h) | DL50 (Male Swiss mice; i.p. injection, male Swiss mice, Wilcoxon method) | anti-hypertensive activity (in words) [3] | anti-hypertensive activity (in words) ([3]; listed as laevorotatory isomer) | toxicity compared with racemic compound (in words) (Male Swiss mice; LD50 values or symptomatology) | activity relative to the (-) derivative in blocking the post-synaptic alpha-receptors response to nor-adrenaline ([2]; versus (-) derivative) | activity relative to the (r) compound in blocking the post-synaptic alpha-receptors response to nor-adrenaline ([2]; versus (r) compound) | anti-hypertensive activity (in words) ([3]; listed as dextrorotatory isomer)
CCOC(CN1CCN(c2ccccc2OC)CC1)c1cccnc1 (racemic) [(r), (±) 1-(2-ethoxy-2-ethoxy-2-(3'-pyridyl)ethyl)-4-(o-methoxyphenyl)piperazine] | 75 mg/kg | 8.62 ± 0.11 | 7.8 mg/kg | 18.8 mg/kg | – | – | – | – | – | – | –
CCOC(CN1CCN(c2ccccc2OC)CC1)c1cccnc1 (single isomer, unassigned; (-)) [(-), (-) 1-(2-ethoxy-2-(3'-pyridyl)ethyl)-4-(o-methoxyphenyl)piperazine] | – | 6.95 ± 0.05 | – | – | 68 mg/kg | quite low activity | almost inactive | – | – | – | –
CCOC(CN1CCN(c2ccccc2OC)CC1)c1cccnc1 (single isomer, unassigned; (+)) [(+), (+) 1-(2-ethoxy-2-(3'-pyridyl)ethyl)-4-(o-methoxyphenyl)piperazine] | 65 mg/kg | 9.04 ± 0.03 | 5.5 mg/kg | 10.9 mg/kg | – | most active form | – | same toxicity of said racemic compound | 100 times | ~3 times | higher anti-hypertensive activity than the racemic compound
